Literature values in US20170172145A1, “COMPOSITIONS COMPRISING AN AMIDE” (The Procter & Gamble Company, priority 2015, published 2017).

Compound	pKa
CCCCCCC(=O)O [heptanoic acid]	5.1
OCl [hypochlorous acid]	7.0
CCCCCCCCC(=O)O [nonanoic acid]	5.2
O=C(O)/C=C/c1ccc(O)cc1 [p-coumaric acid]	4.6
